The values that follow come from patent US20260297060A1, “COMPOUNDS FOR THE DEGRADATION OF MUTANT BRAF” (C4 THERAPEUTICS, INC., priority 2023, published 2026).

One assay has as its system A375-NRAS^Q61K cells. Nature of the assay: CTGlo Cell Viability Assay, A375-NRAS^Q61K (A375.11) cells, 96 hours. To be noted: A375.11 (A375-NRAS^Q61K) cells; for Emax / CTGlo A375.11 96 hours Emax: lowest % viability achieved. In kind it is cell-based, human. The gist of the method: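 Viability as CellTiter-Glo ATP luminescence after 96 h compound exposure at 37 °C; A375.11 (BRAF V600E/NRAS Q61K) cells at 250/well, top final concentration 10 μM in half-log steps. Signal was background-corrected and set relative to DMSO controls. A 4-parameter logistic fit gave GI50 (50% crossing) and Emax.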

The target of the next assay is T1, BRAF V600E (Homo sapiens, UniProt P15056+Q96SW2, V600E).
T1 construct: knock-in of the HiBiT tag to the endogenous BRAF V600E locus; host or cells: A375.10 (A375 clonal line, CRISPR HiBiT knock-in at the endogenous BRAF V600E locus)
The assay can be described thus: BRAF V600E HiBiT Degradation Assay. To be noted: for Emax: read-out: HiBiT-Degradation A375.10 BRAF 2 hours Emax. In kind it is cell-based. An outline of the steps:
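Endogenous HiBiT knock-in on BRAF V600E in A375 cells (clone A375.10); 11-point half-log series, top 10 μM, 2, 6 or 24 h at 37° C. Lytic HiBiT luminescence, background-subtracted, normalized to DMSO; 4-parameter fit gives DC50, Emax (residual protein) and IP (inflection point).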
(In general: HiBiT is a short tag that completes a luciferase, so light tracks the accessible tagged protein.)

[1] abbreviates: A375.10 cells, BRAF V600E, 2 hours, residual protein remaining.
Where [2] appears, read: read-out: HiBiT-Degradation A375.10 BRAF 2 hours DC50, A375.10 cells, BRAF V600E, 2 hours.
The mark [3] stands for this setting: read-out: HiBiT-Degradation A375.10 BRAF 2 hours IP, A375.10 cells, BRAF V600E, 2 hours, inflection point.
Where [4] appears, read: A375.10 cells, BRAF V600E, 2 hours, inflection point, read-out: HiBiT-Degradation A375.10 BRAF 2 hours IP.
Where [5] appears, read: A375.10 cells, BRAF V600E, 2 hours, read-out: HiBiT-Degradation A375.10 BRAF 2 hours DC50.

Read-outs that look alike come from different tables or passages of the source. Bounds are passed on as bounds.

T1 sequence (P15056 whole entry V600E): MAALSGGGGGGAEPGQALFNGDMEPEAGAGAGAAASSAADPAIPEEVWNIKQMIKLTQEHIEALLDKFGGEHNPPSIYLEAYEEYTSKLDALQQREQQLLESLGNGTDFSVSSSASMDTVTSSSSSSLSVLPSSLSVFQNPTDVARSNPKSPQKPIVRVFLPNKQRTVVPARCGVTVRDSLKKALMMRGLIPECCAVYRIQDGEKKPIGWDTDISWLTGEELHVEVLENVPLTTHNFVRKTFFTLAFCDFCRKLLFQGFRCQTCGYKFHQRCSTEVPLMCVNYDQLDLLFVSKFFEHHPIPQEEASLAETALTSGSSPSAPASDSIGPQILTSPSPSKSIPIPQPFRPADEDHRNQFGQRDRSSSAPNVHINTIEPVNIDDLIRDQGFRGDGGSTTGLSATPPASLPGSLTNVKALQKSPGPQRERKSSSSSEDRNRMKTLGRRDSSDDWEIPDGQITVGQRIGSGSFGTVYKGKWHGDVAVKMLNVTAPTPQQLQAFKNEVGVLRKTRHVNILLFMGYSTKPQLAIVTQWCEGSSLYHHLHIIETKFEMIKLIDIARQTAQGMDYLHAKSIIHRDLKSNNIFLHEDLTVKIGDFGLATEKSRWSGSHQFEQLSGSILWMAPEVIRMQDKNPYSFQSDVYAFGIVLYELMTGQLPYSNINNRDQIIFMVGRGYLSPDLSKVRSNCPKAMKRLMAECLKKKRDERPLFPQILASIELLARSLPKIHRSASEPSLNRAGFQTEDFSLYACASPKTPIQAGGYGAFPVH
T1 sequence (Q96SW2 whole entry): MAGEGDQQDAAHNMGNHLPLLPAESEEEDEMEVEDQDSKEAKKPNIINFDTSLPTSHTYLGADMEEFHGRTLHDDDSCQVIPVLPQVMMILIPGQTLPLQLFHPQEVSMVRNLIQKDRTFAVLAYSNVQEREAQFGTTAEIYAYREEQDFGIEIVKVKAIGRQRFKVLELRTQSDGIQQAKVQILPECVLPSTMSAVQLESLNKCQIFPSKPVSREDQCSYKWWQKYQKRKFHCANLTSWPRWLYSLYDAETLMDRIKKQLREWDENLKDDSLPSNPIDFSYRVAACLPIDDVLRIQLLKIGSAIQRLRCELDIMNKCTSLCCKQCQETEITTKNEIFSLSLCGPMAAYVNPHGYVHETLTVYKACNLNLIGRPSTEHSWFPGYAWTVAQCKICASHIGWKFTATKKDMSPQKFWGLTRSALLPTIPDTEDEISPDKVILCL
T1 sequence (Q16531 whole entry partner): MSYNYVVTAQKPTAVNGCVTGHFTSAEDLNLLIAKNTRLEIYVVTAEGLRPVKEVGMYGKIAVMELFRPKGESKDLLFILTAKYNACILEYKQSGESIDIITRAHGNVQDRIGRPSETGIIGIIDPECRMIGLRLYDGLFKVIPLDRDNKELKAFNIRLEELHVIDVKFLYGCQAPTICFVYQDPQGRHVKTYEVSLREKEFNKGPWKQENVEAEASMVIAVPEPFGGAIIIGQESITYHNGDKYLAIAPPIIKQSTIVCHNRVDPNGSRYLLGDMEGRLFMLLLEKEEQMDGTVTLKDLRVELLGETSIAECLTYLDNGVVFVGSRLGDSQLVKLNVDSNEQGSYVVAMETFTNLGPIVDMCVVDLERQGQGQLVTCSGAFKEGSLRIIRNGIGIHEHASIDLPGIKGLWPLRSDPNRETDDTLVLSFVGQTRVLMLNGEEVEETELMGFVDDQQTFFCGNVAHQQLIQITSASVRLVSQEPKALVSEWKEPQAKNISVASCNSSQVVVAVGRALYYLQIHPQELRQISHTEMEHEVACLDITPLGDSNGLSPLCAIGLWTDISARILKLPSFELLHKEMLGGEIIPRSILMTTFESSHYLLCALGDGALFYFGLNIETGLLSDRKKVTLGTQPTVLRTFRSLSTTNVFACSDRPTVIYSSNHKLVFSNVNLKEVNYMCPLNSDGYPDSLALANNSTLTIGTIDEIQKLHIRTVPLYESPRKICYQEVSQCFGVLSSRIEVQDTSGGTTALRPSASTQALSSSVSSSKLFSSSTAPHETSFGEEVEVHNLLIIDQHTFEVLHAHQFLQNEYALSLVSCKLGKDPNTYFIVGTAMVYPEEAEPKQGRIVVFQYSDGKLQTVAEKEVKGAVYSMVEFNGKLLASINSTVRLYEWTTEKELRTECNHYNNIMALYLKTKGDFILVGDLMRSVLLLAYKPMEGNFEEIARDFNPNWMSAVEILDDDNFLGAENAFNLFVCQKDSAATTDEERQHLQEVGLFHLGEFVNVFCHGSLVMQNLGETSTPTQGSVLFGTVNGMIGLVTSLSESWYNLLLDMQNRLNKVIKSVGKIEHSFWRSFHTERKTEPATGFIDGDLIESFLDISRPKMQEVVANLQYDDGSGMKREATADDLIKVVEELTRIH

With `CN(CCO)S(=O)(=O)Nc1ccc(F)c(Oc2ccc3ncc(C4CC5(CCN(C6CC7(C6)CN(c6cc8c(cc6F)c(N6CCC(=O)NC6=O)nn8C)C7)CC5)C4)nc3c2)c1C#N` (stereo not shown) [Compound 187, 7-[2-cyano-6-fluoro-3-[[2-hydroxyethyl(methyl)sulfamoyl]amino]phenoxy]-2-[7-[2-[3-(2,4-dioxohexahydropyrimidin-1-yl)-5-fluoro-1-methyl-indazol-6-yl]-2-azaspiro[3.3]heptan-6-yl]-7-azaspiro[3.5]nonan-2-yl]quinoxaline], the GI50 in the assay with A375-NRAS^Q61K cells (Homo sapiens, 96 h) was greater than 10000 nM. Besides, the Emax in the assay with A375-NRAS^Q61K cells (Homo sapiens, 96 h) lay within 50 to 90%; on BRAF V600E (setting [1]) it was 50 to 90%. Also, the DC50 is 1000 to 10000 nM on BRAF V600E (setting [2]) and less than 1000 nM on BRAF V600E (setting [3]).

Consider `CCN(C)S(=O)(=O)Nc1ccc(F)c(Oc2ccc3ncc(C4CC5(CCN(C6CCC(c7cc8c(cc7F)c(N7CCC(=O)NC7=O)nn8C)CC6)CC5)C4)nc3c2)c1C#N` (single isomer, unassigned) [Compound 181, 7-[2-cyano-3-[[ethyl(methyl)sulfamoyl]amino]-6-fluoro-phenoxy]-2-[7-[4-[3-(2,4-dioxohexahydropyrimidin-1-yl)-5-fluoro-1-methyl-indazol-6-yl]cyclohexyl]-7-azaspiro[3.5]nonan-2-yl]quinoxaline], for which, in the assay with A375-NRAS^Q61K cells, the GI50 is less than 1000 nM and the “CTGlo A375.11 96 hours Emax” value is given as “*** (<=50%)”. Also, the “HiBiT-Degradation A375.10 BRAF 2 hours Emax” value on BRAF V600E is “*** (<=50%)”. Besides, the DC50 on BRAF V600E (setting [4]) is less than 1000 nM. Also, the DC50 on BRAF V600E (setting [5]) is less than 1000 nM.

As to `CN(CCO)S(=O)(=O)Nc1ccc(F)c(Oc2ccc3ncc(C4CC5(CCN(C6CCC(c7cc8c(cc7F)c(N7CCC(=O)NC7=O)nn8C)CC6)CC5)C4)nc3c2)c1C#N` (single isomer, unassigned) [Compound 294, 7-[2-cyano-6-fluoro-3-[[2-hydroxyethyl(methyl)sulfamoyl]amino]phenoxy]-2-[7-[4-[3-(2,4-dioxohexahydropyrimidin-1-yl)-5-fluoro-1-methyl-indazol-6-yl]cyclohexyl]-7-azaspiro[3.5]nonan-2-yl]quinoxaline], the “CTGlo A375.11 96 hours Emax” value in the assay with A375-NRAS^Q61K cells is “** (<90% and >50%)”. In the assay on A375-NRAS^Q61K cells (Homo sapiens, 96 h), this compound returned a concentration for 50% growth inhibition (GI50) of 1000 to 10000 nM. For the same compound, the DC50 at BRAF V600E (setting [4]) and at BRAF V600E (setting [5]) was less than 1000 nM throughout. For the same compound, the Emax at BRAF V600E (setting [1]) fell in the range of 50 to 90%.

Turning to `CC(C)S(=O)(=O)Nc1ccc(F)c(Oc2ccc3ncc(C4CC5(CCN(C6CC7(C6)CN(c6cc8c(cc6F)c(N6CCC(=O)NC6=O)nn8C)C7)CC5)C4)nc3c2)c1C#N` (stereo not shown) [Compound 247, N-[2-cyano-3-[3-[7-[2-[3-(2,4-dioxohexahydropyrimidin-1-yl)-5-fluoro-1-methyl-indazol-6-yl]-2-azaspiro[3.3]heptan-6-yl]-7-azaspiro[3.5]nonan-2-yl]quinoxalin-6-yl]oxy-4-fluoro-phenyl]propane-2-sulfonamide], the GI50 in the assay on A375-NRAS^Q61K cells (Homo sapiens, 96 h) lay in the range of 1000 to 10000 nM. Further, the Emax is 50 to 90% in the assay with A375-NRAS^Q61K cells (Homo sapiens, 96 h) and less than 50% on BRAF V600E (setting [1]). In addition, the DC50 on BRAF V600E (setting [2]) and at BRAF V600E (setting [3]) was less than 1000 nM throughout.

`Cn1nc(N2CCC(=O)NC2=O)c2cc(F)c(N3CC4(CC(N5CCC6(CC5)C[C@@H](n5cnc7ccc(Oc8c(F)ccc(NS(=O)(=O)N9C[C@H]%10C[C@H]%10C9)c8C#N)cc7c5=O)CO6)C4)C3)cc21` [Compound 241, (1S,5R)-N-[2-cyano-3-[3-[(3R)-8-[2-[3-(2,4-dioxohexahydropyrimidin-1-yl)-5-fluoro-1-methyl-indazol-6-yl]-2-azaspiro[3.3]heptan-6-yl]-1-oxa-8-azaspiro[4.5]decan-3-yl]-4-oxo-quinazolin-6-yl]oxy-4-fluoro-phenyl]-3-azabicyclo[3.1.0]hexane-3-sulfonamide]: the 50% growth inhibitory concentration (GI50) with A375-NRAS^Q61K cells (Homo sapiens, 96 h) is 1000 to 10000 nM. Further, the Emax with A375-NRAS^Q61K cells (Homo sapiens, 96 h) was 50 to 90%; at BRAF V600E (setting [1]) it was less than 50%. Moreover, the DC50 on BRAF V600E (setting [4]) and on BRAF V600E (setting [5]) was less than 1000 nM in each case.

In the case of `CCN(C)S(=O)(=O)Nc1ccc(F)c(Oc2ccc3ncn(CCC4CCN(C5CCC(c6ccc(NC7CCC(=O)NC7=O)cc6F)CC5)CC4)c(=O)c3c2)c1C#N` (single isomer, unassigned) [Compound 153, 6-[2-cyano-3-[[ethyl(methyl)sulfamoyl]amino]-6-fluoro-phenoxy]-3-[2-[1-[4-[4-[(2,6-dioxo-3-piperidyl)amino]-2-fluoro-phenyl]cyclohexyl]-4-piperidyl]ethyl]-4-oxo-quinazoline], the GI50 with A375-NRAS^Q61K cells (Homo sapiens, 96 h) was greater than 10000 nM. For the same compound, the Emax lay within 50 to 90% in the assay on A375-NRAS^Q61K cells (Homo sapiens, 96 h) and 50 to 90% at BRAF V600E (setting [1]). Moreover, the results for the DC50 on BRAF V600E (setting [4]) and on BRAF V600E (setting [5]) were less than 1000 nM and 1000 to 10000 nM, respectively.

`CO[C@@H]1CCN(S(=O)(=O)Nc2ccc(F)c(Oc3ccc4ncc(C5CC6(CCN(C7CCC(c8cc9c(cc8F)c(N8CCC(=O)NC8=O)nn9C)CC7)CC6)C5)nc4c3)c2C#N)C1` (single isomer, unassigned) [Compound 284] showed a GI50 with A375-NRAS^Q61K cells (Homo sapiens, 96 h) of less than 1000 nM. Moreover, the Emax is less than 50% in the assay on A375-NRAS^Q61K cells (Homo sapiens, 96 h) and less than 50% at BRAF V600E (setting [1]). Also, the DC50 at BRAF V600E (setting [4]) and on BRAF V600E (setting [5]) was less than 1000 nM each time.

As for `CCN(C)S(=O)(=O)Nc1ccc(F)c(Oc2ccc3ncn(C4CC5(CCN(C6CCC7(CC6)CN(c6cc8c(cc6F)c(N6CCC(=O)NC6=O)nn8C)C7)CC5)C4)c(=O)c3c2)c1C#N` (stereo not shown) [Compound 220, 6-[2-cyano-3-[[ethyl(methyl)sulfamoyl]amino]-6-fluoro-phenoxy]-3-[7-[2-[3-(2,4-dioxohexahydropyrimidin-1-yl)-5-fluoro-1-methyl-indazol-6-yl]-2-azaspiro[3.5]nonan-7-yl]-7-azaspiro[3.5]nonan-2-yl]-4-oxo-quinazoline], in the assay with A375-NRAS^Q61K cells (Homo sapiens, 96 h), the GI50 is greater than 10000 nM. The Emax with A375-NRAS^Q61K cells (Homo sapiens, 96 h) lay within 50 to 90%; at BRAF V600E (setting [1]), 50 to 90%. In addition, the values for the DC50 on BRAF V600E (setting [4]) and at BRAF V600E (setting [5]) were less than 1000 nM and greater than 10000 nM, respectively.

In turn, `CCN(C)S(=O)(=O)Nc1ccc(F)c(Oc2ccc3ncn(C4CC5(CCN(C6CC7(C6)CN(c6ccc(NC8CCC(=O)NC8=O)cc6F)C7)CC5)C4)c(=O)c3c2)c1F` (stereo not shown) [Compound 188, 3-[7-[2-[4-[(2,6-dioxo-3-piperidyl)amino]-2-fluoro-phenyl]-2-azaspiro[3.3]heptan-6-yl]-7-azaspiro[3.5]nonan-2-yl]-6-[3-[[ethyl(methyl)sulfamoyl]amino]-2,6-difluoro-phenoxy]-4-oxo-quinazoline] returned a GI50 in the assay with A375-NRAS^Q61K cells (Homo sapiens, 96 h) greater than 10000 nM. Besides, the Emax with A375-NRAS^Q61K cells (Homo sapiens, 96 h) is 50 to 90%; at BRAF V600E (setting [1]), 50 to 90%. Also, the DC50 on BRAF V600E (setting [4]) and at BRAF V600E (setting [5]) was less than 1000 nM in each case.

Regarding `CO[C@H]1CCN(S(=O)(=O)Nc2ccc(F)c(Oc3ccc4ncn(C5CC6(CCN(C7CCC(c8cc9c(cc8F)c(N8CCC(=O)NC8=O)nn9C)CC7)CC6)C5)c(=O)c4c3)c2C#N)C1` (single isomer, unassigned) [Compound 104], the 50% growth inhibitory concentration (GI50) in the assay with A375-NRAS^Q61K cells was in the range of 1000 to 10000 nM. In addition, in the assay with A375-NRAS^Q61K cells, the “CTGlo A375.11 96 hours Emax” value was “** (<90% and >50%)”. Besides, the DC50 was less than 1000 nM on BRAF V600E (setting [4]); less than 1000 nM at BRAF V600E (setting [5]); less than 1000 nM at BRAF V600E (A375.10 cells, BRAF V600E, 6 hours, inflection point, read-out: HiBiT-Degradation A375.10 BRAF 6 hours IP); less than 1000 nM at BRAF V600E (A375.10 cells, BRAF V600E, 6 hours, read-out: HiBiT-Degradation A375.10 BRAF 6 hours DC50); less than 1000 nM at BRAF V600E (A375.10 cells, HiBiT, BRAF V600E, 24 hours, read-out: HiBiT-Degradation A375.10 BRAF 24 hours DC50); less than 1000 nM at BRAF V600E (A375.10 cells, HiBiT, BRAF V600E, 24 hours, read-out: HiBiT-Degradation A375.10 BRAF 24 hours IP). The “HiBiT-Degradation A375.10 BRAF 2 hours Emax” value at BRAF V600E (setting [1]) was “*** (<=50%)”. Moreover, the “HiBiT-Degradation A375.10 BRAF 6 hours Emax” value on BRAF V600E (A375.10 cells, BRAF V600E, 6 hours, residual protein remaining) is listed as “*** (<=50%)”. Also, the “HiBiT-Degradation A375.10 BRAF 24 hours Emax” value on BRAF V600E (A375.10 cells, HiBiT, BRAF V600E, 24 hours) is reported as “*** (<=50%)”.

In the assay with A375-NRAS^Q61K cells (Homo sapiens, 96 h), `Cn1nc(N2CCC(=O)NC2=O)c2cc(F)c(C3CCC(N4CCC5(CC4)CC(c4cnc6ccc(Oc7c(F)ccc(NS(=O)(=O)C8CCCC8)c7C#N)cc6n4)C5)CC3)cc21` (single isomer, unassigned) [Compound 270, N-[2-cyano-3-[3-[7-[4-[3-(2,4-dioxohexahydropyrimidin-1-yl)-5-fluoro-1-methyl-indazol-6-yl]cyclohexyl]-7-azaspiro[3.5]nonan-2-yl]quinoxalin-6-yl]oxy-4-fluoro-phenyl]cyclopentanesulfonamide] showed a GI50 of less than 1000 nM. Moreover, the Emax in the assay on A375-NRAS^Q61K cells (Homo sapiens, 96 h) is 50 to 90%; at BRAF V600E (setting [1]), less than 50%. Moreover, the DC50 on BRAF V600E (setting [2]) and on BRAF V600E (setting [3]) was less than 1000 nM throughout.

In general, GI50 refers to the concentration at which growth is held to half of that of the control. Low values mean more potent growth inhibition, high ones less potent growth inhibition.
